According to US8796313B2, “Substituted dihydroisoindolones as allosteric modulators of glucokinase” (Janssen Pharmaceutica N.V., priority 2005, dated 2014):

Key:
[1] = biological target: T1, human liver Glucokinase (GK) (Homo sapiens, UniProt P35557); assay: Glucokinase enzyme assay, liver GK; type: biochemical; settings: for EC50: concentration that produces 50% activation above vehicle control; for EC100%: concentration that produces 100% activation above vehicle control; for activation at 50 µM: increase in GK activity above vehicle control, compound 50 μM, 12 mM glucose
T1 construct: His6; made in house; host or cells: Escherichia coli
T1 sequence (P35557 1-466 isoform P35557-2): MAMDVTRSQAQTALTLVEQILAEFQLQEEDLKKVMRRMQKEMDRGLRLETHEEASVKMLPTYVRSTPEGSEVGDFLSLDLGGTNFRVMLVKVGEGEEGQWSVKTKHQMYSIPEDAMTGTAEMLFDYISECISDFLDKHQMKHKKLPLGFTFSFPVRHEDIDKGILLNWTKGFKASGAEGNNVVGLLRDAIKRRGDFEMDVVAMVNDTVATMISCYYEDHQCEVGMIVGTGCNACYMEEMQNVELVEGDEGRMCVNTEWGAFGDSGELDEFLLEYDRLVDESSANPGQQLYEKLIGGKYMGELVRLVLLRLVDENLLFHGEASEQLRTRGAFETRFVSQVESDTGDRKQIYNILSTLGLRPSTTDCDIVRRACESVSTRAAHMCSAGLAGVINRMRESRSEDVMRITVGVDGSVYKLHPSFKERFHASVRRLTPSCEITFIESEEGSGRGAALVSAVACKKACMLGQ
From the text: (§1) An enzymatic Glucokinase (GK) assay using purified recombinant human liver/pancreas enzyme was used to evaluate the effects of potential small molecule modulators.
(§2) In this assay, GK catalyzes glucose phosphorylation in the presence of ATP. The product of this reaction, glucose-6-phosphate, was then oxidized by an excess of glucose-6-phosphate dehydrogenase to produce gluconate-6-phosphate with concomitant reduction of nicotinamide adenine dinucleotide (NAD). […] Human GK (Liver/Pancreas) was expressed in Escherichia coli as a (His) 6-tagged fusion protein and was purified by metal chelate affinity chromatography. The assay was performed in a final incubation volume of 80 μl in a 96-well clear low UV absorption plates. The incubation mixture consisted of 25 mM HEPES, 2 mM MgSO4, 1 mM dithiothreotol (DTT), 1 mg/mL bovine serum albumin (BSA), 1 mM ATP, 1 mM NAD, and 12 mM glucose, 10 units per mL glucose-6-phosphate dehydrogenase, and +/−300 ng per mL GK. For determination of the affinity (Km) and Vmax, different concentrations of glucose ranging from 0.5 mM to 40 mM were used in the assay; see Grimsby, J., Sarabu, R.; Grippo, J. F.; et. al. Science 2003, 301, 370-373. Production of reduced NAD (Nicotinamide Adenine Dinucleotide) was measured as changes in absorption at 340 nm in 96-well plate reader (Envision model #2101 Multilabel Plate reader). % Activation @ 50 μM was calculated as the percentage increase in GK activity above the vehicle control with the effective concentration of the compound being 50 μM. EC50% (μM) was calculated as the effective concentration of the compound that produces 50% activation above the vehicle control, and EC100% (μM) was calculated as the effective concentration of the compound that produces 100% activation above the vehicle control.

[2] = biological target: T2, human pancreas Glucokinase (GK) (Homo sapiens, UniProt P35557); assay: Glucokinase enzyme assay, pancreas GK; type: biochemical; settings: for EC50: concentration that produces 50% activation above vehicle control; for EC100%: concentration that produces 100% activation above vehicle control; for activation at 50 µM: increase in GK activity above vehicle control, compound 50 μM, 12 mM glucose
T2 construct: His6; made in house; host or cells: Escherichia coli
T2 sequence (P35557 1-465): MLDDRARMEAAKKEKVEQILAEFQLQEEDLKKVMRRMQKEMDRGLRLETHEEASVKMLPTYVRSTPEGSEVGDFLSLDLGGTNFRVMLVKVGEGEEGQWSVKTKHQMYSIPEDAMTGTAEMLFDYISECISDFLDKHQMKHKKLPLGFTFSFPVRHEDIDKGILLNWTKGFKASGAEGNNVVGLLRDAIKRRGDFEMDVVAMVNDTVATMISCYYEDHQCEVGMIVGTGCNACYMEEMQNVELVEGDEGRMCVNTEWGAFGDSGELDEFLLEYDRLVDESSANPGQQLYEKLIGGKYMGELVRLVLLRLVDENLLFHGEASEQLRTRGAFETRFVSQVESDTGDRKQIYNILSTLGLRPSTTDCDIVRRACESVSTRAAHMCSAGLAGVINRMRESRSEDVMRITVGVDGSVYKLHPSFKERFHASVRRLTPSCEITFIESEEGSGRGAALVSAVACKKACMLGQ
From the text: as §1
as §2, with “Production of reduced NAD (Nicotinamide Adenine Dinucleotide) was measured as changes in absorption at 340 nm in 96-well plate reader (Envision model #2101 Multilabel Plate reader). % Activation @ 50 μM was calculated as the percentage increase in GK activity above the vehicle control with the effective concentration of the compound being 50 μM.” left out

| SMILES | EC50 [1] [nM] | EC100% [1] [µM] | activation at 50 µM [1] [%] | EC50 [2] [nM] | EC100% [2] [µM] | activation at 50 µM [2] [%] | % Activation @ 5 μM ([2]; cell states @ 5 μM instead of the head's 50 μM) |
| --- | --- | --- | --- | --- | --- | --- | --- |
| O=C(CCC1c2ccccc2C(=O)N1Cc1ccccc1)Nc1ccccn1 (stereo not drawn) [Compound 3, 3-(2-Benzyl-3-oxo-2,3-dihydro-1H-isoindol-1-yl)-N-pyridin-2-yl-propionamide] | 2520 | 8.78 |  |  |  |  |  |
| COC(=O)c1ccc(NC(=O)CCC2c3ccccc3C(=O)N2Cc2ccccc2)nc1 (stereo not drawn) [Compound 2, 6-[3-(2-Benzyl-3-oxo-2,3-dihydro-1H-isoindol-1-yl)-propionylamino]-nicotinic acid methyl ester] | 1290 | 8.39 |  |  |  |  |  |
| O=C(CCC1c2ccccc2C(=O)N1Cc1ccccc1)Nc1nccs1 (stereo not drawn) [Compound 1, 3-(2-Benzyl-3-oxo-2,3-dihydro-1H-isoindol-1-yl)-N-thiazol-2-yl-propionamide] | 15000 |  | 46 |  |  |  |  |
| O=C(NCCC1c2ccccc2C(=O)N1Cc1ccccc1)Nc1nccs1 (stereo not drawn) [Compound 4, 1-[2-(2-Benzyl-3-oxo-2,3-dihydro-1H-isoindol-1-yl)-ethyl]-3-thiazol-2-yl-urea] |  |  | 15 |  |  |  |  |
| O=C(CCC1c2ccccc2C(=O)N1Cc1ccccc1)Nc1ccc(C(=O)O)cn1 (stereo not drawn) [Compound 5, 6-[3-(2-Benzyl-3-oxo-2,3-dihydro-1H-isoindol-1-yl)-propionylamino]-nicotinic acid] | 1900 | 8 | 138 | 2900 | 18 | 306 |  |
| O=C(O)Cc1csc(NC(=O)CCC2c3c(F)ccc(F)c3C(=O)N2Cc2ccc(F)cc2)n1 (stereo not drawn) [Compound 22, (2-{3-[4,7-Difluoro-2-(4-fluoro-benzyl)-3-oxo-2,3-dihydro-1H-isoindol-1-yl]-propionylamino}-thiazol-4-yl)-acetic acid] |  |  |  | 21000 | 188 | 73.7 |  |

More lines, now with the values ahead:

| EC50 [1] [nM] | EC100% [1] [µM] | activation at 50 µM [1] [%] | EC50 [2] [nM] | EC100% [2] [µM] | activation at 50 µM [2] [%] | % Activation @ 5 μM ([2]; cell states @ 5 μM instead of the head's 50 μM) | SMILES |
| --- | --- | --- | --- | --- | --- | --- | --- |
|  |  |  | 530 | 3.4 | 188 |  | O=C(CCC1c2cccc(F)c2C(=O)N1Cc1ccc(F)cc1)Nc1ccc(C(=O)O)cn1 (stereo not drawn) [Compound 15, 6-{3-[4-Fluoro-2-(4-fluoro-benzyl)-3-oxo-2,3-dihydro-1H-isoindol-1-yl]-propionylamino}-nicotinic acid] |
|  |  |  | 230 | 0.75 | 306 |  | O=C(CCC1c2cccc(Cl)c2C(=O)N1Cc1ccc(F)cc1)Nc1ccccn1 (stereo not drawn) [Compound 35, 3-[4-chloro-2-(4-fluoro-benzyl)-3-oxo-2,3-dihydro-1H-isoindol-1-yl]-N-pyridin-2-yl-propionamide] |
|  |  |  | 125 | 0.813 |  | 138 @ 5 μM % | CCOC(=O)/C=C/c1ccc(NC(=O)CCC2c3c(F)cccc3C(=O)N2Cc2ccc(F)cc2)nc1 (stereo not drawn) [Compound 45, 3-(6-{3-[7-Fluoro-2-(4-fluoro-benzyl)-3-oxo-2,3-dihydro-1H-isoindol-1-yl]-propionylamino}-pyridin-3-yl)-acrylic acid ethyl ester] |
|  |  |  | 400 | 1.7 | 172 |  | COC(=O)c1ccc(NC(=O)CCC2c3ccccc3C(=O)N2Cc2ccc(OC)cc2)nc1 (stereo not drawn) [Compound 9, 6-{3-[2-(4-Methoxy-benzyl)-3-oxo-2,3-dihydro-1H-isoindol-1-yl]-propionylamino}-nicotinic acid methyl ester] |
|  |  |  |  |  | 72.5 |  | O=C(CCC1c2c(F)ccc(F)c2C(=O)N1Cc1ccc(F)cc1)Nc1nc(C(=O)O)cs1 (stereo not drawn) [Compound 25, 2-{3-[4,7-Difluoro-2-(4-fluoro-benzyl)-3-oxo-2,3-dihydro-1H-isoindol-1-yl]-propionylamino}-thiazole-4-carboxylic acid] |
|  |  |  | 173 | 0.615 | 309 |  | O=C(CCC1c2cccc(Cl)c2C(=O)N1Cc1ccc(F)cc1)Nc1ccc(Br)cn1 (stereo not drawn) [Compound 38, N-(5-Bromo-pyridin-2-yl)-3-[4-chloro-2-(4-fluoro-benzyl)-3-oxo-2,3-dihydro-1H-isoindol-1-yl]-propionamide] |
|  |  |  | 130 | 6.3 | 120 |  | O=C(CCC1c2c(F)cccc2C(=O)N1Cc1ccc(F)cc1)Nc1ccc2ccccc2n1 (stereo not drawn) [Compound 28, 3-[7-Fluoro-2-(4-fluoro-benzyl)-3-oxo-2,3-dihydro-1H-isoindol-1-yl]-N-quinolin-2-yl-propionamide] |
|  |  |  |  |  | 30.6 |  | CCOC(=O)c1ccnc(NC(=O)CCC2c3c(F)cccc3C(=O)N2Cc2ccc(F)cc2)c1 (stereo not drawn) [Compound 23, 2-{3-[7-Fluoro-2-(4-fluoro-benzyl)-3-oxo-2,3-dihydro-1H-isoindol-1-yl]-propionylamino}-isonicotinic acid ethyl ester] |
